Source: patent publication US11679140B2, “Prevention and/or treatment of hearing loss or impairment” (INSTITUT PASTEUR, priority 2015, dated 2023)
Entries after “also recorded” stand apart in the source; their conditions may differ.

Experiments:
[1] = tested on: Pjvk−/− mice (OHC function); test: Distortion-product otoacoustic emissions (DPOAE) in Pjvk−/− mice; assay type: in vivo, mouse; conditions: antioxidant-treated Pjvk−/− pups, around P21
Experimental: Auditory tests were performed in an anechoic room. They consisted of distortion-product otoacoustic emissions (DPOAEs), auditory brainstem responses (ABRs), electrically-evoked brainstem responses (EEBRs), and cochlear potentials. Mice were anesthetized with an intraperitoneal injection of a ketamine and levomepromazin mixture (100 mg/kg: 5 mg/kg) and their core temperature was kept at 37° C. with the help of a servo-controlled heating pad. The DPOAE at frequency 2f1-f2 was recorded in response to two equal level primary tones, f1 and f2, with f2/f1=1.20 (CubeDis system, Mimosa Acoustics; ER10B microphone, Etymotic Res.). Frequency f2 was swept at 1/10th octave steps from 4 to 20 kHz, and DPOAE level was plotted against frequency f2 (primary tone levels increased from 20 to 70 dB SPL in 10 dB steps, then to 75 dB SPL). […] ABRs in response to calibrated short tone bursts in the 5-40 kHz range (repetition rate 17/s) were derived from the synchronous averaging of electroencephalograms recorded between subcutaneous stainless steel electrodes at the vertex and ipsilateral mastoid, with the help of a standard digital averaging system (CED1401+). […] Once ABR thresholds had been assessed, ABRs in response to 95 and 105 dB SPL tone bursts (100 averages) were collected for analysis of suprathreshold ABR waveforms, amplitudes and latencies. […]

Pjvk−/− mice = test: Auditory brainstem responses (ABR) in Pjvk−/− mice; assay type: in vivo, mouse; conditions: for recovery of ABR wave I latency and ABR interwave I-IV: treated Pjvk−/− mice
Experimental: Auditory tests were performed in an anechoic room. They consisted of distortion-product otoacoustic emissions (DPOAEs), auditory brainstem responses (ABRs), electrically-evoked brainstem responses (EEBRs), and cochlear potentials. Mice were anesthetized with an intraperitoneal injection of a ketamine and levomepromazin mixture (100 mg/kg: 5 mg/kg) and their core temperature was kept at 37° C. with the help of a servo-controlled heating pad. The DPOAE at frequency 2f1-f2 was recorded in response to two equal level primary tones, f1 and f2, with f2/f1=1.20 (CubeDis system, Mimosa Acoustics; ER10B microphone, Etymotic Res.). Frequency f2 was swept at 1/10th octave steps from 4 to 20 kHz, and DPOAE level was plotted against frequency f2 (primary tone levels increased from 20 to 70 dB SPL in 10 dB steps, then to 75 dB SPL). DPOAE threshold was defined as the smallest primary level giving rise to a detectable DPOAE. ABRs in response to calibrated short tone bursts in the 5-40 kHz range (repetition rate 17/s) were derived from the synchronous averaging of electroencephalograms recorded between subcutaneous stainless steel electrodes at the vertex and ipsilateral mastoid, with the help of a standard digital averaging system (CED1401+). A hundred responses to the tone bursts were averaged except within 10 dB of the ABR threshold (defined as the smallest tone-burst level giving rise to at least one repeatable wave above noise background level, 150 nV in an anesthetized animal), for which 300 tone bursts were used. Once ABR thresholds had been assessed, ABRs in response to 95 and 105 dB SPL tone bursts (100 averages) were collected for analysis of suprathreshold ABR waveforms, amplitudes and latencies. Controlled sound exposure was applied with the same acoustic probe used for ABRs without moving the sound system, so that pre- and post-exposure ABRs shared the same calibration. Intense stimuli were the same tone-bursts used for ABR measurements at 105 dB SPL, presented 1,000 times at the same repetition rate of 17/s. […]
N-acetyl-L-cysteine (L-NAC; Sigma) or taurine (Sigma) was administrated to pregnant Pjvk^−/− mice in the drinking water. A daily dose of 1% L-NAC or 2% taurine was given to the mother during and after pregnancy, so that pups received them from birth on by feeding on the mother's milk. The treatment was continued until P21, and the auditory function of the treated Pjvk^−/− pups was tested at P21.

[2] = tested on: mouse embryonic fibroblasts; test: H2O2-induced peroxisome proliferation in mouse embryonic fibroblasts; assay type: cell-based
Experimental: Fibroblasts were isolated from mouse embryos at embryonic day 13.5 and cultured as described by Xu (2005). The cells were incubated in DMEM (Gibco) supplemented with 0.1 mM β-mercaptoethanol, and 0.5 mM H2O2 for 4 hours at 37° C., under normoxic conditions (95% air). The culture medium was then replaced with H2O2-free medium. Cell viability was checked 18 hours after H2O2 treatment, by measuring mitochondrial reductase activity with the MTT (3-(4,5-dimethylthiazol-2-yl)-2,5-diphenyl tetrazolium bromide) (Sigma M2128) assay. A polyclonal antibody against peroxisome membrane protein 70 (PMP70, Abcam ab3421) was used to label peroxisomes.

[3] = tested on: Pjvk−/− mice (auditory neurons); test: Electrically-evoked brainstem responses (EEBR) with controlled electrical stimulation in Pjvk−/− mice; assay type: in vivo, mouse; conditions: for EEBR wave E IV amplitude / resistance to high-rate electrical stimulation: 200/s for 1 minute, treated Pjvk−/− mice
Text: Electrical stimulations of the eighth cranial nerve were delivered by a silver electrode placed in the round-window niche and excited by biphasic electrical impulses (neutral electrode in neck muscles; peak amplitude of electrical stimulus about 0.5 V; duration of the positive and negative phases 150 microseconds; adjustable repetition rate). EEBRs were extracted using the same setup as for ABRs (Roux et al., 2006), in response to 100 electrical impulses presented with alternating polarities (repetition rate 17 Hz). EEBR threshold was defined as the smallest electrical amplitude eliciting repeatable waves above noise background level (the same as for ABRs), labelled from E II to E IV in reference to their ABR equivalents II-IV. Controlled electrical stimulation was applied at 5 dB above EEBR detection threshold with a 200 Hz repetition rate. Occasionally, the silver electrode on the round window served for recording Compound Action Potentials (CAPs) in response to the same tone-bursts used for ABR studies (averages of 32 presentations, repetition rates 17/s), prior to EEBR data collection. These recordings served to check that CAP thresholds and ABR thresholds were within 2 dB of each other at all frequencies, and the exact position of ABR wave I could be ascertained form the larger wave N1, its equivalent on CAP recordings. This was particularly important in mice with abnormally small wave I to avoid incorrect identifications (when wave I was reduced to a very small flattened deflection resembling a summating potential, the slightly larger wave II might have been mistakenly labelled wave I on ABR recordings, while wave N1, even when small, kept its characteristic shape).
Intracochlear viral transduction was carried out as described by Akil et al. (2012). […]
Which cells are the targets of the pejvakin defect, and are they all hypervulnerable to sound exposure? […] Moreover, Electrically-Evoked Brainstem Responses (EEBR) to a direct electric stimulation of the auditory neurons, which test the response of the auditory pathway beyond the cochlea, was also analysed. […]

[4] = antioxidant-treated Pjvk−/− mice, P21

| Structure (SMILES) | effect on OHCs (DPOAE) [1] | recovery of ABR wave I latency and ABR interwave I-IV (Pjvk−/− mice; P21) | increase in number of peroxisomes after H2O2 treatment, Pjvk+/+ fibroblasts ([2]; 0.5 mM H2O2, Pjvk+/+ MEFs) [%] | number of peroxisomes after H2O2 treatment, Pjvk−/− fibroblasts ([2]; 0.5 mM H2O2, Pjvk−/− MEFs) | EEBR wave E IV amplitude / resistance to high-rate electrical stimulation [3] | EEBR wave E IV amplitude / resistance to high-rate electrical stimulation ([3]; listed as NAC) | recovery of neuronal function after high-rate electrical stimulation ([3]; 5 min after high-rate exposure) | protective effect on IHCs and neurons (Pjvk−/− mice; Pjvk−/− mice) | number of auditory neurons that responded to sound stimulation in synchrony (Pjvk−/− mice; Pjvk−/− pups treated via mother's milk) | ABR threshold at 10 kHz (Pjvk−/− mice; antioxidant via mother's drinking water/milk, Pjvk−/− pups tested around P21) [dB SPL] | ABR wave I amplitude (in words) (Pjvk−/− mice; [4]) | ABR wave I latency (Pjvk−/− mice; [4]) [ms] | amplitude of ABR wave I in response to 105 dB SPL (Pjvk−/− mice; [4]) [μV] | ABR interwave I-IV latency (Pjvk−/− mice; antioxidant-treated Pjvk−/− pups, P21) [ms] | ABR thresholds (recovery) (Pjvk−/− mice; antioxidant-treated vs untreated Pjvk−/− pups, P21, listed as NAC) |
| --- | --- | --- | --- | --- | --- | --- | --- | --- | --- | --- | --- | --- | --- | --- | --- |
| NCCS(=O)(=O)O [taurine] | no beneficial effect on OHCs | no significant recovery |  |  |  |  |  |  |  |  |  |  |  |  |  |
| OO [H2O2] |  |  | 46 | remained unchanged |  |  |  |  |  |  |  |  |  |  |  |
| CC(=O)N[C@@H](CS)C(=O)O [N-acetyl cysteine, N-acetyl-L-cysteine] | no beneficial effect on OHCs | no significant recovery |  |  | resisted to high-rate electric stimulation of auditory pathways better than untreated | remained unaffected | Full recovery of neuronal function | moderate protective effect | restored | 72.2±9.3 | fell within the normative range | 1.55 ± 0.18 | 4.35±1.16 | 2.91 ± 0.32 | slight recovery; also recorded: slightly improved |
